Assay results from ChEMBL document CHEMBL3885881, “DrugMatrix”.

Species on record: Rattus norvegicus
Experiment: DrugMatrix - Regimen: Daily Repeat
Format: toxicity, organism-based, Sprague-Dawley
Design: regimen Daily Repeat, gender Male, age 6-8 weeks
Conditions: in vivo, po, route oral GAVAGE, vehicle .5 % CMC; for ALANINE AMINOTRANSFERASE / ALBUMIN / ALKALINE PHOSPHATASE / ASPARTATE AMINOTRANSFERASE / BLOOD UREA NITROGEN / CHLORIDE / CHOLESTEROL / CREATINE PHOSPHOKINASE / CREATININE / GLUCOSE / LACTATE DEHYDROGENASE / LIPASE / PHOSPHORUS / POTASSIUM / SODIUM / TOTAL BILIRUBIN / TOTAL PROTEIN / URIC ACID: tissue Plasma
[1] = 0.0007 mg/kg, 2184 h, tissue Blood, dose level Low, time 91 day
[2] = 0.0007 mg/kg, 2184 h, dose level Low, time 91 day
[3] = 0.0007 mg/kg, […], tissue Blood, dose level Low, time 28 day
[4] = 0.0007 mg/kg, […], dose level Low, time 28 day
[5] = 0.001 mg/kg, 72 h, tissue Blood, dose level M1, time 3 day
[6] = 0.001 mg/kg, 72 h, dose level M1, time 3 day
[7] = 0.001 mg/kg, 120 h, tissue Blood, dose level M1, time 5 day
[8] = 0.001 mg/kg, 120 h, dose level M1, time 5 day
[9] = 0.02 mg/kg, 72 h, tissue Blood, dose level High, time 3 day
[10] = 0.02 mg/kg, 72 h, dose level High, time 3 day
[11] = 0.02 mg/kg, 120 h, tissue Blood, dose level High, time 5 day
[12] = 0.02 mg/kg, 120 h, dose level High, time 5 day

Clc1cc2c(cc1Cl)Oc1cc(Cl)c(Cl)cc1O2 [2,3,7,8-TETRACHLORODIBENZO-P-DIOXIN]
EOSINOPHIL [1]: 1.12%
ERYTHROCYTE COUNT [1]: 9.38 x10E6/uL
HEMATOCRIT [1]: 50.34%
HEMOGLOBIN [1]: 16.79 G/DL
LEUKOCYTE COUNT [1]: 13.03 x10E3/uL
LYMPHOCYTE [1]: 77.67%
MEAN CORPUSCULAR HEMOGLOBIN [1]: 17.96 pg
MEAN CORPUSCULAR HEMOGLOBIN CONCENTRATION [1]: 33.34 G/DL
MEAN CORPUSCULAR VOLUME [1]: 53.81 fL
MONOCYTE [1]: 2.14%
NEUTROPHIL [1]: 16.55%
PLATELET COUNT [1]: 1320.7 x10E3/uL
ALANINE AMINOTRANSFERASE [2]: 26.9 u/L
ALBUMIN [2]: 3.75 G/DL
ALKALINE PHOSPHATASE [2]: 85.3 u/L
ASPARTATE AMINOTRANSFERASE [2]: 64.6 u/L
BLOOD UREA NITROGEN [2]: 14.9 mg/dL
CHLORIDE [2]: 103.1 MEQ/L
CHOLESTEROL [2]: 55.9 mg/dL
CREATINE PHOSPHOKINASE [2]: 76.1 u/L
CREATININE [2]: 0.51 mg/dL
GLUCOSE [2]: 150.6 mg/dL
LACTATE DEHYDROGENASE [2]: 36.1 u/L
LIPASE [2]: 15.1 u/L
PHOSPHORUS [2]: 7.88 mg/dL
POTASSIUM [2]: 6.11 MEQ/L
SODIUM [2]: 151 MEQ/L
TOTAL BILIRUBIN [2]: 0.2 mg/dL
TOTAL PROTEIN [2]: 7.13 G/DL
URIC ACID [2]: 0.79 mg/dL
ABSOLUTE BASOPHIL [3]: 72 cells/µL
ABSOLUTE EOSINOPHIL [3]: 54 cells/µL
ABSOLUTE LYMPHOCYTE [3]: 9720 cells/µL
ABSOLUTE MONOCYTE [3]: 220 cells/µL
ABSOLUTE SEGMENTED NEUTROPHIL [3]: 1340 cells/µL
BASOPHIL [3]: 0.62%
EOSINOPHIL [3]: 0.5%
ERYTHROCYTE COUNT [3]: 8.2 x10E6/uL
HEMATOCRIT [3]: 46.2%
HEMOGLOBIN [3]: 15.3 G/DL
LEUKOCYTE COUNT [3]: 11.47 x10E3/uL
LYMPHOCYTE [3]: 84.6%
MEAN CORPUSCULAR HEMOGLOBIN [3]: 18.64 pg
MEAN CORPUSCULAR HEMOGLOBIN CONCENTRATION [3]: 33.1 G/DL
MEAN CORPUSCULAR VOLUME [3]: 56.34 fL
MONOCYTE [3]: 1.94%
NEUTROPHIL [3]: 11.78%
PLATELET COUNT [3]: 1311.4 x10E3/uL
ALANINE AMINOTRANSFERASE [4]: 24.8 u/L
ALBUMIN [4]: 3.58 G/DL
ALKALINE PHOSPHATASE [4]: 148 u/L
ASPARTATE AMINOTRANSFERASE [4]: 65.4 u/L
BLOOD UREA NITROGEN [4]: 10.6 mg/dL
CHLORIDE [4]: 104 MEQ/L
CHOLESTEROL [4]: 54.8 mg/dL
CREATINE PHOSPHOKINASE [4]: 83.2 u/L
CREATININE [4]: 0.44 mg/dL
GLUCOSE [4]: 147.6 mg/dL
LACTATE DEHYDROGENASE [4]: 39.8 u/L
LIPASE [4]: 39.2 u/L
PHOSPHORUS [4]: 9.54 mg/dL
POTASSIUM [4]: 5.96 MEQ/L
SODIUM [4]: 151.6 MEQ/L
TOTAL BILIRUBIN [4]: 0.2 mg/dL
TOTAL PROTEIN [4]: 6.34 G/DL
URIC ACID [4]: 0.22 mg/dL
BASOPHIL [5]: 0.47%
EOSINOPHIL [5]: 0.5%
ERYTHROCYTE COUNT [5]: 7.09 x10E6/uL
HEMATOCRIT [5]: 44.53%
HEMOGLOBIN [5]: 14.13 G/DL
LEUKOCYTE COUNT [5]: 11.43 x10E3/uL
LYMPHOCYTE [5]: 82.93%
MEAN CORPUSCULAR HEMOGLOBIN [5]: 20 pg
MEAN CORPUSCULAR HEMOGLOBIN CONCENTRATION [5]: 31.8 G/DL
MEAN CORPUSCULAR VOLUME [5]: 62.87 fL
MONOCYTE [5]: 2.37%
NEUTROPHIL [5]: 12.8%
PLATELET COUNT [5]: 1540.67 x10E3/uL
ALANINE AMINOTRANSFERASE [6]: 38.33 u/L
ALBUMIN [6]: 3.6 G/DL
ALKALINE PHOSPHATASE [6]: 343.33 u/L
ASPARTATE AMINOTRANSFERASE [6]: 60 u/L
BLOOD UREA NITROGEN [6]: 12 mg/dL
CHLORIDE [6]: 103 MEQ/L
CHOLESTEROL [6]: 88.33 mg/dL
CREATINE PHOSPHOKINASE [6]: 181.33 u/L
CREATININE [6]: 0.4 mg/dL
GLUCOSE [6]: 183.67 mg/dL
PHOSPHORUS [6]: 13.1 mg/dL
POTASSIUM [6]: 6.53 MEQ/L
SODIUM [6]: 148.33 MEQ/L
TOTAL BILIRUBIN [6]: 0.33 mg/dL
TOTAL PROTEIN [6]: 5.93 G/DL
BASOPHIL [7]: 0.47%
EOSINOPHIL [7]: 0.23%
ERYTHROCYTE COUNT [7]: 7.01 x10E6/uL
HEMATOCRIT [7]: 45.3%
HEMOGLOBIN [7]: 14.33 G/DL
LEUKOCYTE COUNT [7]: 13.09 x10E3/uL
LYMPHOCYTE [7]: 85.1%
MEAN CORPUSCULAR HEMOGLOBIN [7]: 20.47 pg
MEAN CORPUSCULAR HEMOGLOBIN CONCENTRATION [7]: 31.6 G/DL
MEAN CORPUSCULAR VOLUME [7]: 64.6 fL
MONOCYTE [7]: 2.03%
NEUTROPHIL [7]: 11.33%
PLATELET COUNT [7]: 977.33 x10E3/uL
ALANINE AMINOTRANSFERASE [8]: 39.33 u/L
ALBUMIN [8]: 3.63 G/DL
ALKALINE PHOSPHATASE [8]: 300 u/L
ASPARTATE AMINOTRANSFERASE [8]: 62.33 u/L
BLOOD UREA NITROGEN [8]: 12.33 mg/dL
CHLORIDE [8]: 101.67 MEQ/L
CHOLESTEROL [8]: 84.33 mg/dL
CREATINE PHOSPHOKINASE [8]: 173.33 u/L
CREATININE [8]: 0.43 mg/dL
GLUCOSE [8]: 173.33 mg/dL
PHOSPHORUS [8]: 12.97 mg/dL
POTASSIUM [8]: 6.93 MEQ/L
SODIUM [8]: 149.33 MEQ/L
TOTAL BILIRUBIN [8]: 0.5 mg/dL
TOTAL PROTEIN [8]: 6.07 G/DL
BASOPHIL [9]: 0.37%
EOSINOPHIL [9]: 0.47%
ERYTHROCYTE COUNT [9]: 6.77 x10E6/uL
HEMATOCRIT [9]: 41.33%
HEMOGLOBIN [9]: 12.93 G/DL
LEUKOCYTE COUNT [9]: 11.64 x10E3/uL
LYMPHOCYTE [9]: 80.13%
MEAN CORPUSCULAR HEMOGLOBIN [9]: 19.13 pg
MEAN CORPUSCULAR HEMOGLOBIN CONCENTRATION [9]: 31.33 G/DL
MEAN CORPUSCULAR VOLUME [9]: 61.07 fL
MONOCYTE [9]: 2.43%
NEUTROPHIL [9]: 15.43%
PLATELET COUNT [9]: 1395 x10E3/uL
ALANINE AMINOTRANSFERASE [10]: 38.67 u/L
ALBUMIN [10]: 3.43 G/DL
ALKALINE PHOSPHATASE [10]: 312.67 u/L
ASPARTATE AMINOTRANSFERASE [10]: 58.67 u/L
BLOOD UREA NITROGEN [10]: 10.67 mg/dL
CHLORIDE [10]: 103.33 MEQ/L
CHOLESTEROL [10]: 75 mg/dL
CREATINE PHOSPHOKINASE [10]: 168.33 u/L
CREATININE [10]: 0.3 mg/dL
GLUCOSE [10]: 187.33 mg/dL
PHOSPHORUS [10]: 12.63 mg/dL
POTASSIUM [10]: 7.03 MEQ/L
SODIUM [10]: 147 MEQ/L
TOTAL BILIRUBIN [10]: 0.27 mg/dL
TOTAL PROTEIN [10]: 5.57 G/DL
BASOPHIL [11]: 0.5%
EOSINOPHIL [11]: 0.27%
ERYTHROCYTE COUNT [11]: 7.05 x10E6/uL
HEMATOCRIT [11]: 43.57%
HEMOGLOBIN [11]: 13.87 G/DL
LEUKOCYTE COUNT [11]: 16.09 x10E3/uL
LYMPHOCYTE [11]: 87.33%
MEAN CORPUSCULAR HEMOGLOBIN [11]: 19.67 pg
MEAN CORPUSCULAR HEMOGLOBIN CONCENTRATION [11]: 31.8 G/DL
MEAN CORPUSCULAR VOLUME [11]: 61.9 fL
MONOCYTE [11]: 1.77%
NEUTROPHIL [11]: 8.93%
PLATELET COUNT [11]: 1151.33 x10E3/uL
ALANINE AMINOTRANSFERASE [12]: 46 u/L
ALBUMIN [12]: 3.5 G/DL
ALKALINE PHOSPHATASE [12]: 413.67 u/L
ASPARTATE AMINOTRANSFERASE [12]: 68 u/L
BLOOD UREA NITROGEN [12]: 12 mg/dL
CHLORIDE [12]: 102.33 MEQ/L
CHOLESTEROL [12]: 85.67 mg/dL
CREATINE PHOSPHOKINASE [12]: 209.67 u/L
CREATININE [12]: 0.4 mg/dL
GLUCOSE [12]: 184.33 mg/dL
PHOSPHORUS [12]: 12.77 mg/dL
POTASSIUM [12]: 6.53 MEQ/L
SODIUM [12]: 148.67 MEQ/L
TOTAL BILIRUBIN [12]: 0.4 mg/dL
TOTAL PROTEIN [12]: 5.8 G/DL
